Test system: MV-4-11 cells
Assay: Gene expression microarray analysis (Affymetrix PrimeView) and GSEA
Assay type: cell-based, human
Design: RFU PODN (11730768_x_at) / Fold change /veh PODN (11730768_x_at) / RFU LINC00158 (11744669_a_at) / Fold change /veh LINC00158 (11744669_a_at) / RFU DUSP10 (11751237_a_at) / Fold change /veh DUSP10 (11751237_a_at) / RFU ID3 (11757404_x_at) / Fold change /veh ID3 (11757404_x_at) / RFU PLEKHG5 (11737974_s_at) / Fold change /veh PLEKHG5 (11737974_s_at) / RFU LRRC4B (11730491_at) / Fold change /veh LRRC4B (11730491_at) / RFU GIMAP4 (11747438_a_at) / Fold change /veh GIMAP4 (11747438_a_at) / RFU KRT8 (11758183_x_at) / Fold change /veh KRT8 (11758183_x_at) / RFU CNN1 (11734310_a_at) / Fold change /veh CNN1 (11734310_a_at) / RFU VPS37D (11726825_at) / Fold change /veh VPS37D (11726825_at) / RFU C10orf10 (11716522_x_at) / Fold change /veh C10orf10 (11716522_x_at) / RFU KIR2DL2 /// KIR2DL4 /// KIR2DL5A /// KIR2DL5B /// KIR2DS1 /// KIR2DS2 /// KIR2DS3 /// KIR2DS4 /// KIR3DL3 /// KIR3DL3 /// KIR3DS1 (11738374_at) / Fold change /veh KIR2DL2 /// KIR2DL4 /// KIR2DL5A /// KIR2DL5B /// KIR2DS1 /// KIR2DS2 /// KIR2DS3 /// KIR2DS4 /// KIR3DL3 /// KIR3DL3 /// KIR3DS1 (11738374_at) / RFU C1QL1 (11718748_at) / Fold change /veh C1QL1 (11718748_at) / RFU TMPRSS4 (11747572_a_at) / Fold change /veh TMPRSS4 (11747572_a_at) / RFU HAMP (11756126_x_at) / Fold change /veh HAMP (11756126_x_at) / RFU RNFT2 (11725882_a_at) / Fold change /veh RNFT2 (11725882_a_at) / RFU NR4A2 (11747474_a_at) / Fold change /veh NR4A2 (11747474_a_at) / RFU ABCC12 (11746883_a_at) / Fold change /veh ABCC12 (11746883_a_at) / RFU TMEM136 (11760407_x_at) / Fold change /veh TMEM136 (11760407_x_at) / RFU CLDN22 /// WWC2 (11732394_at) / Fold change /veh CLDN22 /// WWC2 (11732394_at) / RFU HLA-DPB1 (11760878_x_at) / Fold change /veh HLA-DPB1 (11760878_x_at) / RFU SPINT1 (11716480_a_at) / Fold change /veh SPINT1 (11716480_a_at) / RFU GAP43 (11754022_s_at) / Fold change /veh GAP43 (11754022_s_at) / RFU A4GNT (11735810_at) / Fold change /veh A4GNT (11735810_at) / RFU PRB3 (11715151_x_at) / Fold change /veh PRB3 (11715151_x_at) / RFU TUBB4B (11761932_at) / Fold change /veh TUBB4B (11761932_at) / RFU CAPN14 (11732068_a_at) / Fold change /veh CAPN14 (11732068_a_at) / RFU TMCC2 (11721928_a_at) / Fold change /veh TMCC2 (11721928_a_at) / RFU IRGQ (11745062_a_at) / Fold change /veh IRGQ (11745062_a_at) / RFU FAM174B (11720279_a_at) / Fold change /veh FAM174B (11720279_a_at) / RFU TMPRSS4 (11748680_a_at) / Fold change /veh TMPRSS4 (11748680_a_at) / RFU FAM212B (11763350_a_at) / Fold change /veh FAM212B (11763350_a_at) / RFU PLEKHG5 (11743358_a_at) / Fold change /veh PLEKHG5 (11743358_a_at) / RFU ZSCAN30 (11745921_a_at) / Fold change /veh ZSCAN30 (11745921_a_at) / RFU CMKLR1 (11741424_a_at) / Fold change /veh CMKLR1 (11741424_a_at) / RFU LOC101060620 /// MAPK8IP1 (11723275_at) / Fold change /veh LOC101060620 /// MAPK8IP1 (11723275_at) / RFU SPTSSB (11747773_x_at) / Fold change /veh SPTSSB (11747773_x_at) / RFU PRSS12 (11739890_at) / Fold change /veh PRSS12 (11739890_at) / RFU BIN1 (11741810_x_at) / Fold change /veh BIN1 (11741810_x_at) / RFU WNT11 (11732464_a_at) / Fold change /veh WNT11 (11732464_a_at) / RFU C10orf10 (11716521_a_at) / Fold change /veh C10orf10 (11716521_a_at) / RFU C5orf56 (11738089_at) / Fold change /veh C5orf56 (11738089_at) / RFU CYB561 (11721691_x_at) / Fold change /veh CYB561 (11721691_x_at) / RFU ANKRD19P (11752326_a_at) / Fold change /veh ANKRD19P (11752326_a_at) / RFU OR2T12 /// OR2T33 /// OR2T8 (11738714_s_at) / Fold change /veh OR2T12 /// OR2T33 /// OR2T8 (11738714_s_at) / RFU VCAN (11748164_a_at) / Fold change /veh VCAN (11748164_a_at) / RFU JSRP1 (11732532_at) / Fold change /veh JSRP1 (11732532_at) / RFU KRTAP10-11 (11738290_x_at) / Fold change /veh KRTAP10-11 (11738290_x_at) / RFU MYO3A (11730013_a_at) / Fold change /veh MYO3A (11730013_a_at) / RFU EBF3 (11725865_a_at) / Fold change /veh EBF3 (11725865_a_at) / RFU CAMK2N1 (11719241_x_at) / Fold change /veh CAMK2N1 (11719241_x_at) / RFU C5orf56 (11738088_a_at) / Fold change /veh C5orf56 (11738088_a_at) / RFU OLFML3 (11715873_a_at) / Fold change /veh OLFML3 (11715873_a_at) / RFU LOC100653217 /// NTM (11731650_a_at) / Fold change /veh LOC100653217 /// NTM (11731650_a_at) / RFU MAPK11 (11762145_a_at) / Fold change /veh MAPK11 (11762145_a_at) / RFU FIZ1 (11724087_x_at) / Fold change /veh FIZ1 (11724087_x_at) / RFU OASL (11726364_x_at) / Fold change /veh OASL (11726364_x_at) / RFU SOX15 (11748057_x_at) / Fold change /veh SOX15 (11748057_x_at) / RFU CD79A (11719716_a_at) / Fold change /veh CD79A (11719716_a_at) / RFU HIST1H1D (11736915_at) / Fold change /veh HIST1H1D (11736915_at) / RFU CASKIN2 (11723855_a_at) / Fold change /veh CASKIN2 (11723855_a_at) / RFU LOC730098 (11760151_x_at) / Fold change /veh LOC730098 (11760151_x_at) / RFU OR4N2 (11742367_at) / Fold change /veh OR4N2 (11742367_at) / RFU PRRT2 (11749266_a_at) / Fold change /veh PRRT2 (11749266_a_at) / RFU SNX32 (11753110_a_at) / Fold change /veh SNX32 (11753110_a_at) / RFU CDHR5 (11726645_a_at) / Fold change /veh CDHR5 (11726645_a_at) / RFU RCAN1 (11760418_a_at) / Fold change /veh RCAN1 (11760418_a_at) / RFU FAM167A (11723789_a_at) / Fold change /veh FAM167A (11723789_a_at) / RFU FAM26E (11764081_at) / Fold change /veh FAM26E (11764081_at) / RFU ISYNA1 (11749810_s_at) / Fold change /veh ISYNA1 (11749810_s_at) / RFU ACY1 (11761880_at) / Fold change /veh ACY1 (11761880_at) / RFU 11764098_at / Fold change /veh 11764098_at / RFU SAMD14 (11745864_x_at) / Fold change /veh SAMD14 (11745864_x_at) / RFU NPB (11741838_a_at) / Fold change /veh NPB (11741838_a_at) / RFU TMPRSS6 (11731388_a_at) / Fold change /veh TMPRSS6 (11731388_a_at) / RFU KRTAP10-2 (11738614_at) / Fold change /veh KRTAP10-2 (11738614_at) / RFU ARHGAP8 /// PRR5-ARHGAP8 (11727945_x_at) / Fold change /veh ARHGAP8 /// PRR5-ARHGAP8 (11727945_x_at) / RFU KRTAP5-7 /// NADSYN1 (11734609_at) / Fold change /veh KRTAP5-7 /// NADSYN1 (11734609_at) / RFU RASL12 (11751679_a_at) / Fold change /veh RASL12 (11751679_a_at) / RFU CDKN2B (11736163_a_at) / Fold change /veh CDKN2B (11736163_a_at) / RFU PRF1 (11729649_at) / Fold change /veh PRF1 (11729649_at) / RFU, ZNF638 /// ZNF638-IT1 / Fold change vs veh, ZNF638 /// ZNF638-IT1 / RFU, PANK3 / Fold change vs veh, PANK3 / RFU, SH3YL1 / Fold change vs veh, SH3YL1 / RFU, ZEB2 / Fold change vs veh, ZEB2 / RFU, NRIP1 / Fold change vs veh, NRIP1 / RFU, PTTG1IP / Fold change vs veh, PTTG1IP / RFU, CAPN2 / Fold change vs veh, CAPN2 / RFU, MED14 / Fold change vs veh, MED14 / RFU, SNORA58 / Fold change vs veh, SNORA58 / RFU, C1orf63 / Fold change vs veh, C1orf63 / RFU, LRRFIP1 / Fold change vs veh, LRRFIP1 / RFU, NDUFAF7 / Fold change vs veh, NDUFAF7 / RFU, SLC12A2 / Fold change vs veh, SLC12A2 / RFU, IBTK / Fold change vs veh, IBTK / RFU, ESF1 / Fold change vs veh, ESF1 / Fold change vs veh, TMEM50B / RFU, TAOK1 / Fold change vs veh, TAOK1 / RFU, ACBD3 / Fold change vs veh, ACBD3 / RFU, TMA16 / Fold change vs veh, TMA16 / RFU, RWDD3 / Fold change vs veh, RWDD3 / RFU, BCAT1 / Fold change vs veh, BCAT1 / RFU, EDEM3 / Fold change vs veh, EDEM3 / RFU, TMEM33 / Fold change vs veh, TMEM33 / RFU, WDR75 / Fold change vs veh, WDR75 / RFU, AHCTF1 / Fold change vs veh, AHCTF1 / RFU, TFRC / Fold change vs veh, TFRC / RFU, ZDHHC17 / Fold change vs veh, ZDHHC17 / RFU, NOM1 / Fold change vs veh, NOM1 / RFU, ARL8B / Fold change vs veh, ARL8B / RFU, ZBTB11 / Fold change vs veh, ZBTB11 / RFU, TAMM41 / Fold change vs veh, TAMM41 / RFU, KIAA1704 /// LOC100996395 / Fold change vs veh, KIAA1704 /// LOC100996395 / RFU, ING1 / Fold change vs veh, ING1 / RFU, TRMT61B / Fold change vs veh, TRMT61B / RFU, FUBP3 / Fold change vs veh, FUBP3 / RFU, TP53 / Fold change vs veh, TP53 / RFU, TNKS2 / Fold change vs veh, TNKS2 / RFU, ZFP14 / Fold change vs veh, ZFP14 / RFU, ACTR2 / Fold change vs veh, ACTR2 / RFU, PPP3R1 / Fold change vs veh, PPP3R1 / RFU, PIK3R1 / Fold change vs veh, PIK3R1 / RFU, HNRNPA1 / Fold change vs veh, HNRNPA1 / RFU, RNF170 / Fold change vs veh, RNF170 / RFU, ZNF28 / Fold change vs veh, ZNF28 / RFU, RNGTT / Fold change vs veh, RNGTT / RFU, OGT / Fold change vs veh, OGT / RFU, BRD1 / Fold change vs veh, BRD1 / RFU, MARS / Fold change vs veh, MARS / RFU, ZNF655 / Fold change vs veh, ZNF655 / RFU, FAHD1 / Fold change vs veh, FAHD1 / RFU, BDP1 / Fold change vs veh, BDP1 / RFU, LRRCC1 / Fold change vs veh, LRRCC1 / RFU, ARID1A / Fold change vs veh, ARID1A / RFU, ZNF146 / Fold change vs veh, ZNF146 / RFU, ZNF330 / Fold change vs veh, ZNF330 / RFU, GPN3 / Fold change vs veh, GPN3 / RFU, C9orf123 / Fold change vs veh, C9orf123 / RFU, N4BP2L2 / Fold change vs veh, N4BP2L2 / RFU, ARFIP1 / Fold change vs veh, ARFIP1 / RFU, FAM179B / Fold change vs veh, FAM179B / RFU, BCL10 / Fold change vs veh, BCL10 / RFU, UHRF1BP1L / Fold change vs veh, UHRF1BP1L / RFU, BET1 / Fold change vs veh, BET1 / RFU, CNOT2 / Fold change vs veh, CNOT2 / RFU, ZNF268 / Fold change vs veh, ZNF268 / Fold change vs veh, ZNF507 / RFU, DGCR2 / Fold change vs veh, DGCR2 / RFU, WDSUB1 / Fold change vs veh, WDSUB1 / Fold change vs veh, HSP90B1 /// MIR3652 / RFU, ADSS / Fold change vs veh, ADSS / RFU, GK / Fold change vs veh, GK / RFU, ZNF148 / Fold change vs veh, ZNF148 / RFU, TAF9 / Fold change vs veh, TAF9 / RFU, SLC1A5 / Fold change vs veh, SLC1A5 / RFU, SLMO2 / Fold change vs veh, SLMO2 / RFU, ABCC4 / Fold change vs veh, ABCC4 / RFU, LOC101060439 /// RAP1B / Fold change vs veh, LOC101060439 /// RAP1B / RFU, RFX7 / Fold change vs veh, RFX7 / RFU, GTPBP10 / Fold change vs veh, GTPBP10 / RFU, CNEP1R1 / Fold change vs veh, CNEP1R1 / RFU, BIVM-ERCC5 /// ERCC5 / Fold change vs veh, BIVM-ERCC5 /// ERCC5 / RFU, ILF3 / Fold change vs veh, ILF3 / RFU 11762660_at / Fold change /veh 11762660_at / RFU VCAN (11757783_s_at) / Fold change /veh VCAN (11757783_s_at) / RFU DDX43 (11728927_at) / Fold change /veh DDX43 (11728927_at) / RFU KRT8 (11758188_x_at) / Fold change /veh KRT8 (11758188_x_at) / RFU NKD1 (11759106_at) / Fold change /veh NKD1 (11759106_at) / RFU SRD5A1 (11742802_a_at) / Fold change /veh SRD5A1 (11742802_a_at) / RFU TPSAB1 /// TPSB2 (11721975_s_at) / Fold change /veh TPSAB1 /// TPSB2 (11721975_s_at) / RFU GSTM3 (11746129_a_at) / Fold change /veh GSTM3 (11746129_a_at) / RFU IL23R (11737362_x_at) / Fold change /veh IL23R (11737362_x_at) / RFU TMEM51 (11727254_a_at) / Fold change /veh TMEM51 (11727254_a_at) / RFU PIWIL2 (11732686_x_at) / Fold change /veh PIWIL2 (11732686_x_at) / RFU ORM1 (11744905_x_at) / Fold change /veh ORM1 (11744905_x_at) / RFU CCDC152 (11743942_at) / Fold change /veh CCDC152 (11743942_at) / RFU ECM1 (11717891_a_at) / Fold change /veh ECM1 (11717891_a_at) / RFU IL23R (11748794_a_at) / Fold change /veh IL23R (11748794_a_at) / RFU TNFAIP8L3 (11732012_x_at) / Fold change /veh TNFAIP8L3 (11732012_x_at) / RFU MBOAT4 (11741988_at) / Fold change /veh MBOAT4 (11741988_at) / RFU 11764193_at / Fold change /veh 11764193_at / RFU TMEM53 (11763286_at) / Fold change /veh TMEM53 (11763286_at) / RFU MAGEB2 (11727129_at) / Fold change /veh MAGEB2 (11727129_at) / RFU TMEM200A (11744735_a_at) / Fold change /veh TMEM200A (11744735_a_at) / RFU CCDC152 (11751479_a_at) / Fold change /veh CCDC152 (11751479_a_at) / RFU FAM211A (11726209_a_at) / Fold change /veh FAM211A (11726209_a_at) / RFU RGS16 (11746705_a_at) / Fold change /veh RGS16 (11746705_a_at) / RFU VCAN (11755009_s_at) / Fold change /veh VCAN (11755009_s_at) / RFU RHOB (11743442_s_at) / Fold change /veh RHOB (11743442_s_at) / RFU RGS16 (11720943_a_at) / Fold change /veh RGS16 (11720943_a_at) / RFU RGS16 (11720944_at) / Fold change /veh RGS16 (11720944_at) / RFU, VPS4B / Fold change vs veh, VPS4B / RFU, CREB1 / Fold change vs veh, CREB1 / RFU, DNAJC13 / Fold change vs veh, DNAJC13 / RFU, GNAQ / Fold change vs veh, GNAQ / RFU, CDK5R1 / Fold change vs veh, CDK5R1 / RFU, ZRANB3 / Fold change vs veh, ZRANB3 / RFU, CUL4A / Fold change vs veh, CUL4A / RFU, CCNY / Fold change vs veh, CCNY / RFU, UFL1 / Fold change vs veh, UFL1 / RFU, COG3 / Fold change vs veh, COG3 / RFU, DIAPH2 / Fold change vs veh, DIAPH2 / RFU, SKA2 / Fold change vs veh, SKA2 / RFU, AFF3 / Fold change vs veh, AFF3 / RFU, LMF1 / Fold change vs veh, LMF1 / RFU, IPO11 / Fold change vs veh, IPO11 / RFU, DFFB / Fold change vs veh, DFFB / RFU, FOXP1 / Fold change vs veh, FOXP1 / RFU, CARD8 / Fold change vs veh, CARD8 / RFU, STRN3 / Fold change vs veh, STRN3 / RFU, ADK / Fold change vs veh, ADK / RFU, RASSF2 / Fold change vs veh, RASSF2 / RFU, WIPF1 / Fold change vs veh, WIPF1 / RFU, LARP1B / Fold change vs veh, LARP1B / RFU, RASA1 / Fold change vs veh, RASA1 / RFU, RB1 / Fold change vs veh, RB1 / RFU, PPFIA1 / Fold change vs veh, PPFIA1 / RFU, MAT2A / Fold change vs veh, MAT2A / RFU, CCT5 / Fold change vs veh, CCT5 / RFU, WDR92 / Fold change vs veh, WDR92 / RFU, CUX1 / Fold change vs veh, CUX1 / RFU, TTC7A / Fold change vs veh, TTC7A / RFU, TMEM135 / Fold change vs veh, TMEM135 / RFU, DEPTOR / Fold change vs veh, DEPTOR / RFU, CPM / Fold change vs veh, CPM / RFU, DNAJB6 / Fold change vs veh, DNAJB6 / RFU, CACNA2D3 / Fold change vs veh, CACNA2D3 / RFU, DTX4 / Fold change vs veh, DTX4 / RFU, TFCP2 / Fold change vs veh, TFCP2 / RFU, GMCL1 /// GMCL1P1 / Fold change vs veh, GMCL1 /// GMCL1P1 / RFU, AEBP2 / Fold change vs veh, AEBP2 / RFU, SNHG1 /// SNORD22 /// SNORD25 /// SNORD26 /// SNORD27 /// SNORD28 /// SNORD29 /// SNORD31 / Fold change vs veh, SNHG1 /// SNORD22 /// SNORD25 /// SNORD26 /// SNORD27 /// SNORD28 /// SNORD29 /// SNORD31 / Fold change (Aza/veh), C12orf56 (ProbeSet 11735607_a_at) / Fold change (ACY-1035/veh), C12orf56 (ProbeSet 11735607_a_at) / Fold change (Aza/veh), FGFR1OP (ProbeSet 11751329_s_at) / Fold change (ACY-1035/veh), FGFR1OP (ProbeSet 11751329_s_at) / Fold change (Aza/veh), VPS36 (ProbeSet 11739960_a_at) / Fold change (ACY-1035/veh), VPS36 (ProbeSet 11739960_a_at) / RFU SYPL1 (11715823_x_at) / Fold change /veh SYPL1 (11715823_x_at) / RFU IGFBP7 (11715501_s_at) / Fold change /veh IGFBP7 (11715501_s_at) / RFU REEP3 (11722064_at) / Fold change /veh REEP3 (11722064_at) / RFU IGLL1 (11728026_x_at) / Fold change /veh IGLL1 (11728026_x_at): dose or concentration left out as unconfirmed
Conditions: MV-4-11 cells, 48 hours

Nc1ncn([C@@H]2O[C@H](CO)[C@@H](O)[C@H]2O)c(=O)n1 [azacitidine]
RFU IL23R (11737362_x_at): 11.80 RFU
